Assay results reported in ChEMBL document CHEMBL4732183, “Synthesis and evaluation of novel cyclopentane urea FPR2 agonists and their potential application in the treatment of cardiovascular inflammation” (Eur J Med Chem, 2021).

Assays:
[1] = Distribution coefficient between octanol and PBS, log D of compound in pH 7.4 at 100 uM incubated for 12 hrs by LC-MS/MS analysis; format: physicochemical
[2] = Metabolic stability in human liver microsomes assessed as half life at 1 uM incubated for 30 mins by LC-MS/MS analysis; format: ADME, Microsome
[3] = Metabolic stability in mouse liver microsomes assessed as half life at 1 uM incubated for 30 mins by LC-MS/MS analysis; format: ADME, Microsome
[4] = Cmax in C57BL/6 mouse at 10 mg/kg, ip measured upto 24 hrs; format: ADME, organism-based; design: route intraperitoneal, dose 10 mg/kg, time <=24; conditions: in vivo
[5] = Tmax in C57BL/6 mouse at 10 mg/kg, ip measured upto 24 hrs; format: ADME, organism-based; conditions: in vivo
[6] = Half life in C57BL/6 mouse at 10 mg/kg, ip measured upto 24 hrs; format: ADME, organism-based; conditions: in vivo
[7] = AUC (0 to last) in C57BL/6 mouse at 10 mg/kg, ip measured upto 24 hrs; format: ADME, organism-based; design: route intraperitoneal, dose 10 mg/kg, time <=24; conditions: in vivo
[8] = AUC (0 to infinity) in C57BL/6 mouse at 10 mg/kg, ip measured upto 24 hrs; format: ADME, organism-based; design: route intraperitoneal, dose 10 mg/kg, time <=24; conditions: in vivo
[9] = AUC extrapolated in C57BL/6 mouse at 10 mg/kg, ip measured upto 24 hrs; format: ADME, organism-based; conditions: in vivo
[10] = MRT (0 to last) in C57BL/6 mouse at 10 mg/kg, ip measured upto 24 hrs; format: ADME, organism-based; conditions: in vivo

Structure (SMILES)	logD at 12 h, 100 µM [1]	half-life at 1 µM [2]	half-life at 1 µM [3]	also measured
O=C(Nc1ccc(Br)cc1)N[C@@H](CC1CC1)C(=O)Nc1cccnc1	> 4	1.52 h	0.733 h	–
O=C(Nc1ccc(Br)cc1)NC(C(=O)Nc1cccnn1)C1CCCC1 (configuration not stated)	> 4	0.267 h	0.183 h	–
O=C(Nc1ccc(Br)cc1)NC1(C(=O)Nc2cncnc2)CCCC1	3.7	1.83 h	1.73 h	–
O=C(Nc1ccc(Br)cc1)NC1(C(=O)Nc2cccnc2)CCCC1	4.1	1.8 h	1.32 h	–
Cc1cncc(NC(=O)C2(NC(=O)Nc3ccc(Br)cc3)CCCC2)c1	3.7	–	–	–
O=C(Nc1ccc(Br)cc1)NC(C(=O)NC1CNC1)C1CCCC1 (configuration not stated)	1.6	–	–	–
CC(C)n1cc(NC(=O)C2(NC(=O)Nc3ccc(Br)cc3)CCCC2)cn1	4.2	2.17 h	1.5 h	–
O=C(Nc1ccc(Br)cc1)NC(C(=O)NC1COC1)C1CCCC1 (configuration not stated)	4.3	> 6.67 h	> 6.67 h	–
Cc1nn(C)cc1NC(=O)C1(NC(=O)Nc2ccc(Br)cc2)CCCC1	3.1	2.6 h	3.78 h	–
O=C(Nc1ccc(Br)cc1)NC(C(=O)Nc1cccnc1)C1CC1 (configuration not stated)	> 4	1.33 h	0.683 h	–
O=C(Nc1ccc(Br)cc1)NC(CC1CCCCC1)C(=O)Nc1cccnc1 (configuration not stated)	> 4	1.02 h	0.183 h	–
O=C(CNC(=O)Nc1ccc(Br)cc1)Nc1cccnc1	3.6	1.87 h	0.367 h	–
O=C(Nc1ccc(Br)cc1)NC1(C(=O)Nc2ccccn2)CCCC1	4.3	0.133 h	0.15 h	–
Cc1nn(C)cc1NC(=O)C(NC(=O)Nc1ccc(Br)cc1)C1CCCC1 (configuration not stated)	> 4	–	–	–
O=C(Nc1ccc(Br)cc1)NC(C(=O)NC1CCOCC1)C1CCCC1 (configuration not stated)	> 4	3.45 h	1.73 h	–
O=C(Nc1ccc(Br)cc1)NC(C(=O)Nc1cccnc1)C1CCCC1 (configuration not stated)	> 4	1.38 h	0.55 h	Cmax [4]: 31900 ng/mL; Tmax [5]: 0.5 h; half-life [6]: 2.08 h; AUC(0-t) at 24 h [7]: 69000 ng·h/mL; AUC(0-inf) [8]: 69000 ng·h/mL; %AUCextra [9]: 0.02%; MRT last at 24 h [10]: 2.41 h
CN1CCC(NC(=O)C2(NC(=O)Nc3ccc(Br)cc3)CCCC2)CC1	1.2	2.62 h	3.23 h	–
CC(C)C[C@H](NC(=O)Nc1ccc(Br)cc1)C(=O)Nc1cccnc1	4.2	1.58 h	1.08 h	–
CC(C)n1cc(NC(=O)C(NC(=O)Nc2ccc(Br)cc2)C2CCCC2)cn1 (configuration not stated)	> 4	–	–	–
O=C(Nc1ccc(Br)cc1)NC(C(=O)Nc1cccnc1)C1CCOCC1 (configuration not stated)	4.7	3.13 h	1.5 h	–
O=C(Nc1ccc(Br)cc1)NC(C(=O)Nc1cncnc1)C1CCCC1 (configuration not stated)	4	3.07 h	1.53 h	–
CN1CCC(NC(=O)C(NC(=O)Nc2ccc(Br)cc2)C2CCCC2)CC1 (configuration not stated)	2.5	1.83 h	7.95 h	–
O=C(Nc1ccc(Br)cc1)NC1(C(=O)Nc2ccc(Cl)nc2)CCCC1	4.4	0.867 h	0.533 h	–
O=C(Nc1ccc(Br)cc1)NC1(C(=O)NCc2nn[nH]n2)CCCC1	1.1	8.67 h	6.98 h	–
Cc1ccc(NC(=O)C2(NC(=O)Nc3ccc(Br)cc3)CCCC2)cn1	3.9	1.67 h	0.6 h	–
O=C(Nc1ccc(Br)cc1)NC(C(=O)NCC1CCCO1)C1CCCC1 (configuration not stated)	4.7	0.217 h	0.417 h	–
